Test results as given in publication PMC10442399, “Crystal structure and functional implications of cyclic di-pyrimidine-synthesizing cGAS/DncV-like nucleotidyltransferases” (Nature Communications, 2023).
pKd: −log10 of the molar value. Entries after “also recorded” stand apart in the source; their conditions may differ. Where two headings read alike, the source gives them in different places.

Tests used:
[1] = biological target: T1, EfCdnE (Enterococcus faecalis, UniProt P0DX98); assay: ITC analysis of nucleotide binding to wild-type EfCdnE
T1 construct: Full-length gene fragments encoding ClCdnE from Cecembia lonarensis; made in house; host or cells: E. coli BL21 (DE3)
T1 sequence (P0DX98 whole entry, the tested form may be a part): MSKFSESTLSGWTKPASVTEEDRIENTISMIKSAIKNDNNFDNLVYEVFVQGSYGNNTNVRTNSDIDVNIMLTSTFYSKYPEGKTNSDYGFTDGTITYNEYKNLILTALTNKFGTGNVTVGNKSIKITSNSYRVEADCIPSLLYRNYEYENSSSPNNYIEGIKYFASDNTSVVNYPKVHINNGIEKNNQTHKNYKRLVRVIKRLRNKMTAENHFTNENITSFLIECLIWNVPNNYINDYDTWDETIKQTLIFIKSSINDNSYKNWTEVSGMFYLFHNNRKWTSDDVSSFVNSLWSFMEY
Experimental: (§1) EfCdnE was chosen as the sample to evaluate the affinity of this class of enzyme to different nucleotides by isothermal titration calorimetry (ITC), using nano-ITC (TA Instruments). EfCdnE was dialyzed overnight against an assay buffer containing 20 mM Tris pH 8.0, 150 mM NaCl. The nucleotides to be tested (UTP, CTP, ATP and GTP, and their analogs) were each dissolved in the same buffer. Titration was carried out by 20 sequential injections of the nucleotide at a concentration of 250 μM at 3-min intervals to 50 μM EfCdnE, with a stirring speed of 300 rpm. The heat of dilution resulting from injecting the nucleotide into the assay buffer was subtracted. The final data were analyzed and curve-fitted with sequential two-site mode by using NanoAnalyze v3.12.5 (TA Instruments).

[2] = biological target: T2, EfCdnE^W281A (Enterococcus faecalis, UniProt P0DX98, W281A); assay: ITC analysis of nucleotide binding to EfCdnE^W281A mutant; conditions: read-out: dissociation constant (KD)
T2 construct: Full-length gene fragments encoding ClCdnE from Cecembia lonarensis; His6 (C); made in house; host or cells: E. coli BL21 (DE3)
T2 sequence (P0DX98 1-299 W281A): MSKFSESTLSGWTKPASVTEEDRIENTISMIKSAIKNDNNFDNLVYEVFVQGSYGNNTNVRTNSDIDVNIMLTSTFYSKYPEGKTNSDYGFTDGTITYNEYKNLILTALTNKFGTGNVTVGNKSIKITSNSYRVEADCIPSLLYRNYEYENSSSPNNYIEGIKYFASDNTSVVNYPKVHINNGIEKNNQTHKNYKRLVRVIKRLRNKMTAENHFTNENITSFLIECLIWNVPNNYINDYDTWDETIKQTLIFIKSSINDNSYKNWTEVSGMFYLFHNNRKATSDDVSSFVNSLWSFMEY
Source text: (§2) To validate the importance of this motif, we changed Arg279 and Trp281 of EfCdnE to a smaller alanine residue and assessed the substrate specificity and product synthesis of both wild-type and mutant EfCdnE by ITC and LC-MS/MS. […] Based on sequence conservation and structural similarity, it is proposed that the cyclic di-pyrimidine-synthesizing CdnE proteins, including ClCdnE, EfCdnE, and LpCdnE, form smaller donor pockets that act as molecular gauges to recognize and retain the binding of pyrimidine nucleotides but weaken or exclude the binding to purine nucleotides (Fig. 6F). In combination with the conserved Asn residue in the acceptor pocket, the substrate specificity for double pyrimidine was achieved (Fig. 6F).
as §1, with “Titration was carried out by 20 sequential injections of the nucleotide at a concentration of 250 μM at 3-min intervals to 50 μM EfCdnE, with a stirring speed of 300 rpm. The heat of dilution resulting from injecting the nucleotide into the assay buffer was subtracted.” left out

[3] = biological target: T3, EfCdnE^R279A (Enterococcus faecalis, UniProt P0DX98, R279A); assay: ITC analysis of nucleotide binding to EfCdnE^R279A mutant
T3 construct: Full-length gene fragments encoding ClCdnE from Cecembia lonarensis; His6 (C); made in house; host or cells: E. coli BL21 (DE3)
T3 sequence (P0DX98 whole entry R279A, the tested form may be a part): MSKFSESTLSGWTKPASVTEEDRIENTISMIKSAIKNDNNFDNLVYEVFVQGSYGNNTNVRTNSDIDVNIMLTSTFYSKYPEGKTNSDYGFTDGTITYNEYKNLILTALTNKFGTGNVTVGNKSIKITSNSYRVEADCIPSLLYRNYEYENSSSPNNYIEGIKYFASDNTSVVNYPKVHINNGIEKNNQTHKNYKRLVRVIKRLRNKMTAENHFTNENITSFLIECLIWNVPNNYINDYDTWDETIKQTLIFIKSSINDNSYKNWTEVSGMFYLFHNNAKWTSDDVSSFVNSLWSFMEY
Source text: as §2
as §1, with “Titration was carried out by 20 sequential injections of the nucleotide at a concentration of 250 μM at 3-min intervals to 50 μM EfCdnE, with a stirring speed of 300 rpm. The heat of dilution resulting from injecting the nucleotide into the assay buffer was subtracted.” left out

[4] = dissociation constant (KD), second of two binding sites, ITC, wild-type EfCdnE, sequential two-site fit, second-named site (acceptor pocket for UMPnPP)

SMILES: O=c1ccn([C@@H]2O[C@H](COP(=O)(O)NP(=O)(O)OP(=O)(O)O)[C@@H](O)[C@H]2O)c(=O)[nH]1 [UMPnPP]
- pKd [1]: 7.83
- pKd [1, 4]: 6.01

SMILES: Nc1ncnc2c1ncn2[C@@H]1O[C@H](COP(=O)(O)CP(=O)(O)OP(=O)(O)O)[C@@H](O)[C@H]1O [AMPcPP]
- binding to EfCdnE (in words) ([1]; ITC, wild-type EfCdnE): No binding; also recorded: too weak to be detected
- pKd [2]: 4.46

SMILES: Nc1nc2c(ncn2[C@@H]2O[C@H](COP(=O)(O)CP(=O)(O)OP(=O)(O)O)[C@@H](O)[C@H]2O)c(=O)[nH]1 [GMPcPP]
- binding to EfCdnE (in words) ([1]; ITC, wild-type EfCdnE): No binding; also recorded: too weak to be detected
- pKd [2]: 4.19

SMILES: Nc1nc2c(ncn2[C@@H]2O[C@H](COP(=O)(O)OP(=O)(O)OP(=O)(O)O)[C@@H](O)[C@H]2O)c(=O)[nH]1 [GTP]
- binding to EfCdnE (in words) ([1]; ITC, wild-type EfCdnE): did not
- binding affinity, dissociation constant (in words) [3]: near micromolar

SMILES: Nc1ccn([C@@H]2O[C@H](COP(=O)(O)CP(=O)(O)OP(=O)(O)O)[C@@H](O)[C@H]2O)c(=O)n1 [CMPcPP]
- pKd [1]: 7.73
- binding to EfCdnE pre-incubated with UMPnPP (in words) ([1]; ITC, EfCdnE pre-incubated with UMPnPP): no binding; also recorded: did not bind
- pKd [1, 4]: 5.90

SMILES: Nc1ncnc2c1ncn2[C@@H]1O[C@H](COP(=O)(O)OP(=O)(O)OP(=O)(O)O)[C@@H](O)[C@H]1O [ATP]
- binding to EfCdnE (in words) ([1]; ITC, wild-type EfCdnE): did not
- binding affinity, dissociation constant (in words) [3]: near micromolar
